Among the data in article PMC9653751, “Chemical Composition and Antioxidant, Antimicrobial, and Anti-Inflammatory Properties of Origanum compactum Benth Essential Oils from Two Regions: In Vitro and In Vivo Evidence and In Silico Molecular Investigations” (Molecules, 2022) are Quercetin values, retold here.

This test deals with T1, Tyrosinase.
T1 construct: gene PPO3
The test is described as follows: tyrosinase inhibition assay, details only by reference. Conditions: substrate and pH not given. Format: biochemical. The text has this: tyrosinase inhibition assay, details only by reference on Tyrosinase

As to `O=c1c(O)c(-c2ccc(O)c(O)c2)oc2cc(O)cc(O)c12` [Quercetin], the Quercetin turned out to be 39.62 ± 0.05 µg/mL.
